The values below are quoted from earlier work in patent US9278942B2, “Non-steroidal compounds as androgen receptor modulators” (FLX Discoveries Oy, priority 2011, dated 2016).

The series concerns the target T1, LNCaP (containing an AR mutation) (Homo sapiens, UniProt P10275, T878A).
T1 sequence (P10275 1-920 T878A): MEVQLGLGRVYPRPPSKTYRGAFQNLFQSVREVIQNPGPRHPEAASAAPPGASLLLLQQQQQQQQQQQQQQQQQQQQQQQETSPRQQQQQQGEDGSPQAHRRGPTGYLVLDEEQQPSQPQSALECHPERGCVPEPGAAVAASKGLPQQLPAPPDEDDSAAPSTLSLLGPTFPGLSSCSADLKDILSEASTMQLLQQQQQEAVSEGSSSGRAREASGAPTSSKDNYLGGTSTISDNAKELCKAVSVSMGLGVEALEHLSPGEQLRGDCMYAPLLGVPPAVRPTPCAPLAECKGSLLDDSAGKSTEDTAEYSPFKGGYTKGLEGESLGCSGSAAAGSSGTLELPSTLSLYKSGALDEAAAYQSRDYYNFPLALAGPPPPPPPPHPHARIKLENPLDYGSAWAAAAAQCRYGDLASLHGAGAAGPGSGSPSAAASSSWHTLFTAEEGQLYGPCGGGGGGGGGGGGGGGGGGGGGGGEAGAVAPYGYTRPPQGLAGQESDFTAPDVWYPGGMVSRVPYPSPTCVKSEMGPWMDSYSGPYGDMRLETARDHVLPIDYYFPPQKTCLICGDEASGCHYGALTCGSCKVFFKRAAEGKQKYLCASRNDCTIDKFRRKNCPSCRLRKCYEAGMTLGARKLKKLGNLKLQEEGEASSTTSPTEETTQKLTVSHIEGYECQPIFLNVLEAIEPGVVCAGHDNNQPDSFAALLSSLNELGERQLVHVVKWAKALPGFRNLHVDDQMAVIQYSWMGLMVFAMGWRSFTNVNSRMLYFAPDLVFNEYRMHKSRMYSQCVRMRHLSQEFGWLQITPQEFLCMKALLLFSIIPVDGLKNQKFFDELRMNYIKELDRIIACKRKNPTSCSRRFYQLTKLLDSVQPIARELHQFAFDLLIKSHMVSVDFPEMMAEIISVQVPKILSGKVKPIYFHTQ
The settings on record: LNCaP prostate cancer cells; cited from earlier work.

For `CC(C)(O)C(=O)Nc1ccc([N+](=O)[O-])c(C(F)(F)F)c1` [Hydroxyflutamide, reference compound], the “Activity of hydroxyflutamide at the AR mutation of LNCaP cells” value is recorded as “agonist”.
